The values that follow come from patent US20220218781A1, “COMPOSITION FOR ENHANCEMENT OF BIOAVAILABILITY OF PHYTOCHEMICALS AND PROCESS FOR PREPARATION THEREOF” (OLENE LIFE SCIENCES PRIVATE LIMITED, priority 2019, published 2022).

SMILES strings stand for the structures.

The series can be described thus: Comparative self-dispersion study in water. It counts as physicochemical. As to conditions: without mechanical stirring, test product vs. standard unformulated reference product. The method, then: A comparative self-dispersion study was carried out between the ‘Composition of Example 1 (Test product)’ and ‘Standard unformulated lutein extract (Reference product)’.
A comparative self-dispersion study was carried out between the ‘Composition of Example 13 (Test product)’ and ‘Standard unformulated Boswellia extract (Reference product)’.
A comparative self-dispersion study was carried out between the ‘Composition of Example 16 (Test product)’ and ‘Standard unformulated Pepper extract (Reference product)’.
A comparative self dispersion study was carried out between the ‘Composition of Example 22 (Test product)’ and ‘Standard unformulated Coenzyme Q10 Extract (Reference product)’.
A comparative self dispersion study was carried out between the ‘Composition of Example 25 (Test product)’ and ‘Standard unformulated Palmitoylethanolamide (Reference product)’. The dispersion profile is given in FIG. 7A (test product) and FIG. 7B (reference product).

For the compound `COC1=C(OC)C(=O)C(C/C=C(\C)CC/C=C(\C)CC/C=C(\C)CC/C=C(\C)CC/C=C(\C)CC/C=C(\C)CC/C=C(\C)CC/C=C(\C)CC/C=C(\C)CCC=C(C)C)=C(C)C1=O` [Coenzyme Q10], the self-dispersion profile entry is listed as “non-dispersible”.
